Source: patent US20240199587A1, “HETEROCYCLIC COMPOUNDS” (Hoffmann-La Roche Inc., priority 2021, published 2024)

The molecules below were run against T1, MAGL (Homo sapiens, UniProt Q99685) (assay: 2-AG assay (MAGL inhibitory activity, hydrolysis of 2-arachidonoylglycerol to arachidonic acid followed by mass spectrometry)). Conditions: 8 μM 2-arachidonoylglycerol, 15 min pre-incubation, 30 min incubation at RT, RapidFire MS readout.
T1 sequence (Q99685 1-303): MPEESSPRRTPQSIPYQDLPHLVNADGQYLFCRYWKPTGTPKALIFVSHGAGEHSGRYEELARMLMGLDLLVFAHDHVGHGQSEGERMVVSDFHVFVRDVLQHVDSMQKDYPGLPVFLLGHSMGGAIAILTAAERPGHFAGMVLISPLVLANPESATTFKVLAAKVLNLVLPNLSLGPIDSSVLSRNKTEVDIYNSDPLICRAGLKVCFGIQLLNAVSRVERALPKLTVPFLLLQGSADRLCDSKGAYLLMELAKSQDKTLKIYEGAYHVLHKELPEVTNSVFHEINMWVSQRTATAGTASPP
Type: biochemical
How it was run: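 Arachidonic acid released from 8 μM 2-arachidonoylglycerol was quantified by online SPE triple-quadrupole MS (negative ESI, 303.1→259.1), normalised to d8-arachidonic acid internal standard. Reaction ran 30 min at RT after 15 min RT compound pre-incubation with […] MAGL in TRIS/EDTA/Tween-20 buffer, 2.5% DMSO.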

IC50 [µM]	Compound
0.00097	O=C(N1CC(c2ccc(NC3(C(F)(F)F)CC3)nc2)C1)N1CC2(CC(n3cnc(C4CC4)n3)C2)C1 [Example 477, [6-(3-cyclopropyl-1,2,4-triazol-1-yl)-2-azaspiro[3.3]heptan-2-yl]-[3-[6-[[1-(trifluoromethyl)cyclopropyl]amino]-3-pyridyl]azetidin-1-yl]methanone]
0.0013	O=C(N1CC2(CC(Oc3cc(F)ccc3F)C2)C1)N1CC2(CC(n3cnc(C4CC4)n3)C2)C1 [Example 79, (6-(3-cyclopropyl-1H-1,2,4-triazol-1-yl)-2-azaspiro[3.3]heptan-2-yl)(6-(2,5-difluorophenoxy)-2-azaspiro[3.3]heptan-2-yl)methanone]
0.0057	O=C(N1CC(c2ccc(C3(N4CCOCC4)CC3)cc2)C1)N1CC2(CC(n3cnc(C4CC4)n3)C2)C1 [Example 34, [6-(3-cyclopropyl-1,2,4-triazol-1-yl)-2-azaspiro[3.3]heptan-2-yl]-[3-[4-(1-morpholinocyclopro-pyl)phenyl]azetidin-1-yl]methanone]
1.3	O=C(N1CC(NCc2ccc(C(F)(F)F)cc2Cl)C1)N1CC2(CC(c3ccc(C(F)(F)F)nc3)C2)C1 [Example 531]
0.00475	O=C(N1CC(C23CC(c4nnc(C5(C(F)(F)F)CC5)[nH]4)(C2)C3)C1)N1CC2(CC(n3cnc(C(F)(F)F)n3)C2)C1 [Example 418, [3-[3-[5-[1-(trifluoromethyl)cyclopropyl]-4H-1,2,4-triazol-3-yl]-1-bicyclo[1.1.1]pentanyl]azetidin-1-yl]-[6-[3-(trifluoromethyl)-1,2,4-triazol-1-yl]-2-azaspiro[3.3]heptan-2-yl]methanone]
0.0272	COC(=O)c1ccccc1S(=O)(=O)N1CC2(CN(C(=O)N3CC4(CC(n5cnc(C6CC6)n5)C4)C3)C2)C1 [Example 264, methyl 2-[[6-[6-(3-cyclopropyl-1,2,4-triazol-1-yl)-2-azaspiro[3.3]heptane-2-carbonyl]-2,6-diazaspiro[3.3]heptan-2-yl]sulfonyl]benzoate]
0.018	NS(=O)(=O)c1ccccc1CN1CC2(C1)CN(C(=O)N1CC3(CC(n4cnc(C5CC5)n4)C3)C1)C2 [Example 257, 2-[[2-[6-(3-cyclopropyl-1,2,4-triazol-1-yl)-2-azaspiro[3.3]heptane-2-carbonyl]-2,6-diazaspiro[3.3]heptan-6-yl]methyl] benzenesulfonamide]
0.0163	CS(=O)(=O)c1cc(F)cc(CC2CC3(C2)CN(C(=O)N2CC4(CC(n5cnc(C6(O)CC6)n5)C4)C2)C3)c1 [Example 411, [6-[(3-fluoro-5-methylsulfonyl-phenyl)methyl]-2-azaspiro[3.3]heptan-2-yl]-[6-[3-(1-hydroxycyclopropyl)-1,2,4-triazol-1-yl]-2-azaspiro[3.3]heptan-2-yl]methanone]
0.0149	O=C(N1CC2(CC(n3cnc(C4CC4)n3)C2)C1)N1CC2(CCN(Cc3ccc(C(F)(F)F)nn3)C2)C1 [Example 438, [6-(3-cyclopropyl-1,2,4-triazol-1-yl)-2-azaspiro[3.3]heptan-2-yl]-[7-[[6-(trifluoromethyl)pyridazin-3-yl]methyl]-2,7-diazaspiro[3.4]octan-2-yl]methanone]
0.0714	O=C(N1CC2(CC(n3cnc(C4CC4)n3)C2)C1)N1CC2(CC(n3ncnc3C3CC3)C2)C1 [Example 450, [6-(3-cyclopropyl-1,2,4-triazol-1-yl)-2-azaspiro[3.3]heptan-2-yl]-[6-(5-cyclopropyl-1,2,4-triazol-1-yl)-2-azaspiro[3.3]heptan-2-yl]methanone]
0.611	O=C(O)c1ccc(F)c(S(=O)(=O)N2CC3(CN(C(=O)N4CC5(CC(n6cnc(C7CC7)n6)C5)C4)C3)C2)c1 [Example 327]
1.49	CC(C)(C)c1nnc(-c2ccc(C(=O)N3CC4(CC(n5cnc(Cl)n5)C4)C3)cc2)o1 [Example 168, [4-(5-tert-butyl-1,3,4-oxadiazol-2-yl)phenyl]-[6-(3-chloro-1,2,4-triazol-1-yl)-2-azaspiro[3.3]heptan-2-yl]methanone]
0.35	CS(=O)(=O)c1ccc(CC2CC3(C2)CN(C(=O)N2CC4(CC(c5ccc(C(F)(F)F)nc5)C4)C2)C3)cc1 [Example 530, [6-[(4-methylsulfonylphenyl)methyl]-2-azaspiro[3.3]heptan-2-yl]-[6-[6-(trifluoromethyl)-3-pyridyl]-2-azaspiro[3.3]heptan-2-yl]methanone]
0.0832	O=C(N1CC2(CC(OCC(F)(F)F)C2)C1)N1CC2(CC(n3cnc(C4CC4)n3)C2)C1 [Example 65, [6-(3-cyclopropyl-1,2,4-triazol-1-yl)-2-azaspiro[3.3]heptan-2-yl]-[6-(2,2,2-trifluoroethoxy)-2-azaspiro[3.3]heptan-2-yl]methanone]
0.0064	O=C(N1CC2(CC(n3cnc(C4CC4)n3)C2)C1)N1CC2(C1)CN(S(=O)(=O)N1CCCCC1)C2 [Example 237, [6-(3-cyclopropyl-1,2,4-triazol-1-yl)-2-azaspiro[3.3]heptan-2-yl]-[2-(1-piperidylsulfonyl)-2,6-diazaspiro[3.3]heptan-6-yl]methanone]
0.0007	O=C(N1CC2(CC(n3cnc(C4CC4)n3)C2)C1)N1CC2(CN(Cc3ccc(F)cc3Cl)C2)C1 [Example 201, (6-(2-chloro-4-fluorobenzyl)-2,6-diazaspiro[3.3]heptan-2-yl)(6-(3-cyclopropyl-1H-1,2,4-triazol-1-yl)-2-azaspiro[3.3]heptan-2-yl)methanone]
0.168	O=C(N1CC2(CCC(Cc3ccc(OC(F)F)nc3)CC2)C1)N1CC2(CC(c3cncc(F)c3)C2)C1 [Example 511, [7-[[6-(difluoromethoxy)-3-pyridyl]methyl]-2-azaspiro[3.5]nonan-2-yl]-[6-(5-fluoro-3-pyridyl)-2-azaspiro[3.3]heptan-2-yl]methanone]
0.546	O=C(C1CC(COCC2(C(F)(F)F)CC2)C1)N1CC2(CC(n3cnc(C4CC4)n3)C2)C1 (stereo not shown) [Example 173, [6-(3-cyclopropyl-1,2,4-triazol-1-yl)-2-azaspiro[3.3]heptan-2-yl]−[3-[[1-(trifluoromethyl)cyclopropyl]methoxymethyl]cyclobutyl]methanone]
0.00233	O=C(N1CC2(CC(Cc3ccc(Cl)cn3)C2)C1)N1CC2(CC(n3cnc(C4(O)CC4)n3)C2)C1 [Example 404, [6-[(5-chloro-2-pyridyl)methyl]-2-azaspiro[3.3]heptan-2-yl]-[6-[3-(1-hydroxycyclopropyl)-1,2,4-triazol-1-yl]-2-azaspiro[3.3]heptan-2-yl]methanone]
0.0142	CS(=O)(=O)c1cc(Cl)ccc1-c1ccc(C2CN(C(=O)N3CC4(CC(c5cncc(F)c5)C4)C3)C2)cc1 [Example 366, [3-[4-(4-chloro-2-methylsulfonyl-phenyl)phenyl]azetidin-1-yl]-[6-(5-fluoro-3-pyridyl)-2-azaspiro[3.3]heptan-2-yl]methanone]
0.356	O=C(N1CC(Oc2ccc(C(F)(F)F)c(C3CC3)c2)C1)N1CC2(CC(c3cncc(F)c3)C2)C1 [Example 512]
0.0646	O=C(N1CC(c2cn(C3(C(F)(F)F)CC3)nn2)C1)N1CC2(CC(n3cnc(C4CC4)n3)C2)C1 [Example 164, [6-(3-cyclopropyl-1,2,4-triazol-1-yl)-2-azaspiro[3.3]heptan-2-yl]-[3-[1-[1-(trifluoromethyl)cyclo-propyl]triazol-4-yl]azetidin-1-yl]methanone]
